These results are taken from publication PMC6515380 (2019).

The subject of test [1] is wtTel26 (DNA, G4) TTAGGGTTAGGGTTAGGGTTAGGGTT
In words: fluorescence titration. Particulars: 100 mM K+, 25 °C, pH 7; for Kd: 0.2 μM ligand titrated with DNA; for ΔGbindo(expt): 0.2 μM ligand, ΔG obtained from experimentally determined Kd.

For test [2] the test system is unchanged. In words: 1D 1H NMR titration. Particulars: 25 mM potassium phosphate, 70 mM KCl, pH 7, 25 °C, 100–250 µM DNA.
Setting [3] is: medium exchange, peak broadening, less specific.

The structures appear in SMILES notation.

By Kd is commonly meant the concentration at which binding is half-saturated. Lower therefore signals higher affinity. On to `COc1cc2c(cc1OC)-c1cc3ccc(OC)c(OC)c3c[n+]1CC2`, for which, in test [1], the Kd stood at 0.740 ± 0.0206 µM and the “ΔGbindo(expt)” value is -8.41 ± 0.01 kcal/mol. Moreover, in test [2] (setting [3]), the binding entry was “yes”.
Consider `COc1ccc2cc3[n+](cc2c1OC)CCc1cc2c(cc1-3)OCO2`, for which, in test [1], the Kd is 1.994 ± 0.0461 µM and the “ΔGbindo(expt)” value is -7.82 ± 0.06 kcal/mol. Further, the binding entry in test [2] (setting [3]) was “yes”.
Turning to `c1c2c(cc3c1OCO3)-c1cc3ccc4c(c3c[n+]1CC2)OCO4`, in test [1], the Kd is 0.333 ± 0.0057 µM and the “ΔGbindo(expt)” value is -8.89 ± 0.1 kcal/mol. The binding entry in test [2] (setting [3]) is recorded as “yes”.
For the compound `COc1cc2c(cc1OC)-c1cc3ccc4c(c3c[n+]1CC2)OCO4`, in test [1], the Kd is 0.016 ± 0.0016 µM and the “ΔGbindo(expt)” value is -10.70 ± 0.02 kcal/mol. In test [2] (slow exchange, well-defined complex), the binding result is recorded as “yes”.
